Legend:
[1] = target: T1, Transient receptor potential cation channel subfamily V member 1 (Homo sapiens, UniProt Q8NER1); assay: Antagonist activity at human TRPV1 expressed in human 1321N1 cells assessed as inhibition of capsaicin-induced calcium influx by FLIPR assay; type: functional, cell-based
[2] = Intrinsic clearance in guinea pig liver microsomes; type: ADME, Cavia porcellus, Microsome
[3] = system: Liver microsomes; assay: Intrinsic clearance in human liver microsomes; type: ADME, Microsome
[4] = system: Cavia porcellus; assay: Antihyperalgesic activity in guinea pig assessed as reversal of FCA-induced inflammatory pain at 5 mg/kg, ip; type: functional; conditions: route intraperitoneal
[5] = target: Cytochrome P450 3A4 (Homo sapiens, UniProt P08684); assay: Inhibition of CYP3A4; type: ADME
[6] = target: Transient receptor potential cation channel subfamily V member 1 (Cavia porcellus) (UniProt Q6R5A3); conditions: HEK293
Description: Antagonist activity at guinea pig TRPV1 expressed in HEK293 cells assessed as inhibition of capsaicin-induced calcium influx by FLIPR assay

[7] = species: Cavia porcellus; assay: Antihyperalgesic activity against FCA-induced inflammatory pain in guinea pig assessed as paw withdrawal after 1 hr; type: functional
[8] = target: T1, Transient receptor potential cation channel subfamily V member 1; assay: Antagonist activity at human TRPV1 expressed in HEK293 cells assessed as inhibition of pH 5.3 acid-induced calcium influx by whole cell patch clamp assay; type: functional, cell-based
[9] = target: T1, Transient receptor potential cation channel subfamily V member 1; assay: Antagonist activity at human TRPV1 expressed in HEK293 cells assessed as inhibition of capsaicin-induced calcium influx by whole cell patch clamp assay; type: functional, cell-based
[10] = target: T1, Transient receptor potential cation channel subfamily V member 1; conditions: HEK293
Description: Antagonist activity at human TRPV1 expressed in HEK293 cells assessed as inhibition of capsaicin-induced calcium influx by FLIPR assay

[11] = target: T1, Transient receptor potential cation channel subfamily V member 1; assay: Antagonist activity at human TRPV1 expressed in HEK293 cells assessed as inhibition of capsaicin-induced calcium influx at 1 uM by whole cell patch clamp assay; type: functional, cell-based
[12] = target: T1, Transient receptor potential cation channel subfamily V member 1; assay: Antagonist activity at human TRPV1 expressed in HEK293 cells assessed as inhibition of pH 5.3 acid-induced calcium influx by FLIPR assay; type: functional, cell-based
[13] = Oral bioavailability in guinea pig; type: ADME, organism-based, Cavia porcellus; conditions: in vivo
[14] = target: T1, Transient receptor potential cation channel subfamily V member 1; assay: Inhibition of human TRPV1 expressed in HEK293 cells assessed as reversible inhibition of heat-activated current at 1 uM by whole cell patch clamp assay relative to control; type: cell-based
[15] = target: Transient receptor potential cation channel subfamily V member 1 (Rattus norvegicus) (UniProt O35433); conditions: HEK293
Description: Antagonist activity at rat TRPV1 expressed in HEK293 cells assessed as inhibition of capsaicin-induced calcium influx by FLIPR assay

[16] = target: T1, Transient receptor potential cation channel subfamily V member 1; assay: Antagonist activity at human TRPV1 expressed in HEK293 cells assessed as inhibition of pH 5.3 acid-induced calcium influx at 100 nM by whole cell patch clamp assay; type: functional, cell-based
[17] = target: Transient receptor potential cation channel subfamily V member 1 (Cavia porcellus, UniProt Q6R5A3); assay: Antagonist activity at guinea pig TRPV1 expressed in HEK293 cells assessed as inhibition of pH 5.3 acid-induced calcium influx by FLIPR assay; type: functional, cell-based
[18] = target: Transient receptor potential cation channel subfamily V member 1 (Rattus norvegicus, UniProt O35433); assay: Antagonist activity at rat TRPV1 expressed in HEK293 cells assessed as inhibition of pH 5.3 acid-induced calcium influx by FLIPR assay; type: functional, cell-based
[19] = system: Cavia porcellus; assay: Antihyperalgesic activity in guinea pig assessed as reversal of FCA-induced inflammatory pain at 30 mg/kg, sc; type: functional; conditions: route subcutaneous
[20] = Blood clearance in rat at 1 mg/kg, iv; type: ADME, organism-based; design: dose 1 mg/kg, route intravenous; conditions: whole blood
[21] = Half life in rat at 1 mg/kg, iv; type: ADME, organism-based; design: dose 1 mg/kg, route intravenous; conditions: in vivo

T1 sequence (Q8NER1 whole entry): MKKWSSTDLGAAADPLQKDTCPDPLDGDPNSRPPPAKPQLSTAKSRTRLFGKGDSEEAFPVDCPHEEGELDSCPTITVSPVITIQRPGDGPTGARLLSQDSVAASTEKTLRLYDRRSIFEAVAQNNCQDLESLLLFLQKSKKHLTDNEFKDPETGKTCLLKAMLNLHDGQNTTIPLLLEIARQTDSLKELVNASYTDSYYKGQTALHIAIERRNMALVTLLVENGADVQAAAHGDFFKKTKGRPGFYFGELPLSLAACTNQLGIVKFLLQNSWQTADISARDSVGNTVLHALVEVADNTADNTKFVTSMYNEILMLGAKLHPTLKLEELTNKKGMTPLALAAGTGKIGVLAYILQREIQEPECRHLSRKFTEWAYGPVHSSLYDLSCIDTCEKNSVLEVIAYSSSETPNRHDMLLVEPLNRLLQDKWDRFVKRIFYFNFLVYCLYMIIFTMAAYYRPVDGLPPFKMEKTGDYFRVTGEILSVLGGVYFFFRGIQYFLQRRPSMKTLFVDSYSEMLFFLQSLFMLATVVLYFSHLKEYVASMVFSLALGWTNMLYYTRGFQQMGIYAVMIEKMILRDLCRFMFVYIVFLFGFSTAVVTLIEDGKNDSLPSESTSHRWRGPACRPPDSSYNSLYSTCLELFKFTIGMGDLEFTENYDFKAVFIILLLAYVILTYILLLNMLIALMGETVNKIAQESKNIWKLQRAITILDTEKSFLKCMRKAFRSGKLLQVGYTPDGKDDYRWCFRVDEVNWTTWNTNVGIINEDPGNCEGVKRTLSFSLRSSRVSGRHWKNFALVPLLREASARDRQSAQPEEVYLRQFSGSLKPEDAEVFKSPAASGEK
Chain of Transient receptor potential cation channel subfamily V member 1 (Rattus norvegicus, UniProt O35433) (O35433 whole entry): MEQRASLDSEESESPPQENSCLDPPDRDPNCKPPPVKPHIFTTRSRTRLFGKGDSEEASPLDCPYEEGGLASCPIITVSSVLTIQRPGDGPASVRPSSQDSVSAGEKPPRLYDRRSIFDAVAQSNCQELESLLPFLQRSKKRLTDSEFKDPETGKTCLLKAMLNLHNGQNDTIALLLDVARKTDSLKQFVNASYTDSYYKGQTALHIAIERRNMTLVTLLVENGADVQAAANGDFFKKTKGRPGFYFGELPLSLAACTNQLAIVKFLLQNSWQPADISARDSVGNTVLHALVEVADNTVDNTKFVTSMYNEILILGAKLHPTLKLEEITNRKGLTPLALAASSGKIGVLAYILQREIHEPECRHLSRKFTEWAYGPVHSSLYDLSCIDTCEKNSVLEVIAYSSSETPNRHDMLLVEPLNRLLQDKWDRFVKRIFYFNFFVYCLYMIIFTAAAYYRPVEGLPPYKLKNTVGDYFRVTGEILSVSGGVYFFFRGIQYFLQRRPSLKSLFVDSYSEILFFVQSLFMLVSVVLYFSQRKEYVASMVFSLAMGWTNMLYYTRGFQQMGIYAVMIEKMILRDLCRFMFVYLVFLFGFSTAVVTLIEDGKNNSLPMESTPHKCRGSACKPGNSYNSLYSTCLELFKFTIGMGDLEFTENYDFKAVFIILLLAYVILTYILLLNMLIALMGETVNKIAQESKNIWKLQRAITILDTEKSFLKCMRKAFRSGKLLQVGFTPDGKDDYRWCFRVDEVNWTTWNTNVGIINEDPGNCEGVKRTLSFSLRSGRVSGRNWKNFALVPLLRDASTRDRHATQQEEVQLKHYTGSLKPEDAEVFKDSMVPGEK
Chain of Transient receptor potential cation channel subfamily V member 1 (Rattus norvegicus) (O35433 whole entry): as above
Chain of Transient receptor potential cation channel subfamily V member 1 (Cavia porcellus) (Q6R5A3 whole entry): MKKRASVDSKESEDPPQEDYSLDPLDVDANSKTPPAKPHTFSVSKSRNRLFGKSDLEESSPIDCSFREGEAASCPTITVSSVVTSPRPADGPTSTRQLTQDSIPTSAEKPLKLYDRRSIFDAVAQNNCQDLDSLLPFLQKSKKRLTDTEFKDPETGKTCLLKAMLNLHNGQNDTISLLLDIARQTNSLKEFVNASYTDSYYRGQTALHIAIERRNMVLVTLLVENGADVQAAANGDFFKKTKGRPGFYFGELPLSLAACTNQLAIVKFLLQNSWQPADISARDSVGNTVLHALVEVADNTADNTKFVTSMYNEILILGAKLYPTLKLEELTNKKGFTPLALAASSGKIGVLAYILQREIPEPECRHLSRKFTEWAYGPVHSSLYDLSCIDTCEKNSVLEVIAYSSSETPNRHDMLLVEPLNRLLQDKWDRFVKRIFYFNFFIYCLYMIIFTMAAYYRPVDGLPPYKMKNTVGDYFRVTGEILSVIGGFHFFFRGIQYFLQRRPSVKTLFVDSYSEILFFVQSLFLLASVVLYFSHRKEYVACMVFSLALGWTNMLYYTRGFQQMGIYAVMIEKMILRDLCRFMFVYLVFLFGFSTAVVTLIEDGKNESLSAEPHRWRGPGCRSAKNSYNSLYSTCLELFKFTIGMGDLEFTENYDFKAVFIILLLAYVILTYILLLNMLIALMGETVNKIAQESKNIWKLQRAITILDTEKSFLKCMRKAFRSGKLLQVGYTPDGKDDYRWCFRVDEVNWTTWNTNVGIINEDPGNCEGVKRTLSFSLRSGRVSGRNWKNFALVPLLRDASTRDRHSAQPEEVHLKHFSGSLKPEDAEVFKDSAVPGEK
Chain of Transient receptor potential cation channel subfamily V member 1 (Cavia porcellus, UniProt Q6R5A3) (Q6R5A3 whole entry): as above
Chain of Cytochrome P450 3A4 (P08684 whole entry): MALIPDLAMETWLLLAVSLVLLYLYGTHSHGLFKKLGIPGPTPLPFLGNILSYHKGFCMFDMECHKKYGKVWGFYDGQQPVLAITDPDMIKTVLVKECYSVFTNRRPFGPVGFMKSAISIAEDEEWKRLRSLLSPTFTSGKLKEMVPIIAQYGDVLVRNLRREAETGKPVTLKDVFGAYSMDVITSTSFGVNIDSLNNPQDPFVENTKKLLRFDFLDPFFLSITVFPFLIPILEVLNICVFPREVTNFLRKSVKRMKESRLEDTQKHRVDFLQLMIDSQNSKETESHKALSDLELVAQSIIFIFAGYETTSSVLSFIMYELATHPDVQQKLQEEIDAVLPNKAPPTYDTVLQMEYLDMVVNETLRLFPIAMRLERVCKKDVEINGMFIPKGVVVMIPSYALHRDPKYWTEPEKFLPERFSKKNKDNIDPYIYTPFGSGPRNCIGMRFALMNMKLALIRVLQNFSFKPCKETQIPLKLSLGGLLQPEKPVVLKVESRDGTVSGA

O=C(Nc1ccc2cccnc2c1)c1ccc(Cl)nc1
pKb [1]: < 6.7

Cc1cc(-c2ccccc2)ncc1C(=O)Nc1ccc2cccnc2c1
pKb [1]: 6.7

Cc1nc2ccc(NC(=O)c3ccc(-c4ccc(F)cc4)nc3C)cc2o1
pKb [1]: < 6.7

N#Cc1ccc(-c2ccc(C(=O)Nc3ccc4cccnc4c3)cn2)cc1
pKb [1]: < 6.6

O=C(Nc1ccc2cccnc2c1)c1ccc(-c2ccccc2F)nc1
pKb [1]: 8.7

Cc1nc(-c2ccc(F)cc2)ccc1C(=O)Nc1ccc2sc(N(C)C)nc2c1
pKb [1]: < 5.8

Cc1nc(-c2ccc(F)cc2)ccc1C(=O)Nc1ccc2cn[nH]c2c1
pKb [1]: 7.5

O=C(Nc1ccc2cccnc2c1)c1ccc(-c2ccc(F)cc2)nc1
CL [2]: 42 mL/min/g
pKb [1]: 8.2
CL [3]: 1.7 mL/min/g

Cc1nc(-c2ccc(F)cc2)ccc1C(=O)Nc1ccc2sc(CN(C)C)nc2c1
pKb [1]: < 6.7

Cc1nc(-c2ccc(F)cc2)ccc1C(=O)Nc1ccc2nc[nH]c2c1
pKb [1]: 7.2

O=C(Nc1ccc2cccnc2c1)c1ccc(-c2ccc(Cl)cc2)nc1
pKb [1]: 7.8

Cc1nc(-c2ccc(F)cc2)ccc1C(=O)Nc1ccc2cccnc2c1
Activity [4]: 42%
IC50 [5]: < 10 µM
pKb [1]: 8.5

Cc1nc(-c2ccccc2)ccc1C(=O)Nc1ccc2cccnc2c1
pKb [1]: 9

Cc1nc(-c2ccc(F)cc2)ccc1C(=O)Nc1ccc2scnc2c1
pKb [1]: 7.5

Cc1nc2cc(NC(=O)c3ccc(-c4ccc(F)cc4)nc3C)ccc2s1
pKb [6]: 7.4
Activity [7]: 68%
ED50 ([7]; Cavia porcellus, 1 h): 0.53 mg/kg
Activity [4]: 48%
IC50 [8]: 0.009 µM
IC50 [9]: 0.049 µM
pKb [10]: 7.2
inhibition [11]: 100%
IC50 [12]: 0.0398 µM
bioavailability [13]: 24%
CL [2]: 2.7 mL/min/g
inhibition [14]: 87%
pKb [15]: 7
inhibition [16]: 96%
pKb [1]: 7.4
IC50 [17]: 0.0631 µM
IC50 [18]: 0.1 µM
CL [3]: 2.2 mL/min/g

Cc1nc(-c2ccc(F)cc2)ccc1C(=O)Nc1ccc2ccn(C)c2c1
pKb [1]: < 6.5

O=C(Nc1ccc2cccnc2c1)c1ccc(-c2cccc(F)c2)nc1
pKb [1]: 8.6

Cc1nc(-c2ccc(F)cc2)ccc1C(=O)Nc1ccc2ncsc2c1
pKb [1]: 6.7

Cc1nc2ccc(NC(=O)c3ccc(-c4ccc(F)cc4)nc3C)cc2[nH]1
pKb [1]: 6

O=C(Nc1ccc2cccnc2c1)c1ccc(-c2ccc(C(F)(F)F)cc2)nc1
pKb [1]: 7.3

Cc1nc(-c2ccc(F)cc2)ccc1C(=O)Nc1ccc2c(C)n[nH]c2c1
pKb [1]: 6.9

N#Cc1ccc(C(=O)Nc2ccc3cccnc3c2)cn1
pKb [1]: < 6.7

Cc1nc(-c2ccc(F)cc2)ccc1C(=O)Nc1ccc2ncn(C)c2c1
pKb [1]: 6.7

O=C(Nc1ccc2cccnc2c1)c1ccc(-c2ccccc2)nc1
Activity [19]: 32%
clearance [20]: 33 mL/min/kg
CL [2]: 3.9 mL/min/g
half-life [21]: 21.6 min
CL [3]: 3.1 mL/min/g

Reference: ChEMBL document CHEMBL1142448, “Design and synthesis of 6-phenylnicotinamide derivatives as antagonists of TRPV1” (Bioorg Med Chem Lett, 2008)
